The record followed here is EP3623369A1, “NOVEL MORPHOLINYL AMINE COMPOUNDS FOR THE TREATMENT OF AUTOIMMUNE DISEASE” (F. Hoffmann-La Roche AG, priority 2018, dated 2020).

In the test the target is T1, hTLR7 (Homo sapiens, UniProt Q9NYK1).
T1 sequence (Q9NYK1 27-1049): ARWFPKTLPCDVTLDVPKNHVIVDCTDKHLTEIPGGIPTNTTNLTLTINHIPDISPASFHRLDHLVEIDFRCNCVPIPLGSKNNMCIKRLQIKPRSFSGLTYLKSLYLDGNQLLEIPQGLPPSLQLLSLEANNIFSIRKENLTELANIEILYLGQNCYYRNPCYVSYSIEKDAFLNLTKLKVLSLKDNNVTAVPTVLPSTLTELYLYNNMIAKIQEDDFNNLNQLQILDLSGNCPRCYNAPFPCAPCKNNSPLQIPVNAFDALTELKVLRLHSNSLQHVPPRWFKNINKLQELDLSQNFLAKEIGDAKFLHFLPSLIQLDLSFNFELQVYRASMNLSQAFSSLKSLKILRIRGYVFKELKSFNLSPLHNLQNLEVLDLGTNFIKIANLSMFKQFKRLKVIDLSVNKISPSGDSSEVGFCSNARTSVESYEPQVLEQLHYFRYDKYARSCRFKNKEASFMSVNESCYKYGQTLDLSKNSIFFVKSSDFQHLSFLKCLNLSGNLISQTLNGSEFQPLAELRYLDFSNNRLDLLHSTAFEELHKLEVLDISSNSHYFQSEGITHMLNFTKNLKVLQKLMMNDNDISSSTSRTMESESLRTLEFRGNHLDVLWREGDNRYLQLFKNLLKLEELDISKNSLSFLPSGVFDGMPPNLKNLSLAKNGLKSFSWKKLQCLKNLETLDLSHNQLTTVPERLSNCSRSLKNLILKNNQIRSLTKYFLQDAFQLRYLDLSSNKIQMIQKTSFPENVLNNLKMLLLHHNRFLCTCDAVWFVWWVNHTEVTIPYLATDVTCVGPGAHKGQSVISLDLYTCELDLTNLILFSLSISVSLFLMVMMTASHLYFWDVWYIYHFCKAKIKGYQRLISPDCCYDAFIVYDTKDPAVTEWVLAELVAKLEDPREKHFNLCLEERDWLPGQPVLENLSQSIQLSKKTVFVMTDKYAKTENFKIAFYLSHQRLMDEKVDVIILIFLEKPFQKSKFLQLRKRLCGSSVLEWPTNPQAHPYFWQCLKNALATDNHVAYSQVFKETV
Kind of test: HEK293-Blue-hTLR-7 cells assay (SEAP reporter, R848 stimulation). The following applies: HEK293-Blue-hTLR7 cells, R848, 20 hrs; 0.003 is the lowest tested concentration; read-out: HEK/hTLR7 IC50. It counts as cell-based. The procedure: The following tests were carried out in order to determine the activity of the compounds of formula (I) or (Ia) in HEK293-Blue-hTLR-7/8/9 cells assay.
HEK293-Blue-hTLR-7 cells assay:
A stable HEK293-Blue-hTLR-7 cell line was purchased from InvivoGen (Cat.#: hkb-htlr7, San Diego, California, USA). These cells were originally designed for studying the stimulation of human TLR7 by monitoring the activation of NF-κB. A SEAP (secreted embryonic alkaline phosphatase) reporter gene was placed under the control of the IFN-β minimal promoter fused to five NF-κB and AP-1-binding sites. The SEAP was induced by activating NF-κB and AP-1 via stimulating HEK-Blue hTLR7 cells with TLR7 ligands. Therefore the reporter expression was declined by TLR7 antagonist under the stimulation of a ligand, such as R848 (Resiquimod), for incubation of 20 hrs. The cell culture supernatant SEAP reporter activity was determined using QUANTI-Blue™ kit (Cat.#: rep-qb1, Invivogen, San Diego, Ca, USA) at a wavelength of 640 nm, a detection medium that turns purple or blue in the presence of alkaline phosphatase.
HEK293-Blue-hTLR7 cells were incubated at a density of 250,000∼450,000 cells/mL in a volume of 170 µL in a 96-well plate in Dulbecco's Modified Eagle's medium (DMEM) containing 4.5 g/L glucose, 50 U/mL penicillin, […], […], 2 mM L-glutamine, 10% (v/v) heat-inactivated fetal bovine serum with addition of 20 µL test compound in a serial dilution in the presence of final DMSO at 1% and 10 µL of 20uM R848 in above DMEM, perform incubation under 37 °C in a CO2 incubator for 20 hrs. Then 20 µL of the supernatant from each well was incubated with 180 µL Quanti-blue substrate solution at 37 °C for 2 hrs and the absorbance was read at 620∼655 nm using a spectrophotometer. The signalling pathway that TLR7 activation leads to downstream NF-κB activation has been widely accepted, and therefore similar reporter assay was modified for evaluating TLR7 antagonist.
For the compound `C[C@@H]1CN(c2ccc(C#N)c3ncccc23)C[C@H](CN2Cc3ccc(N4C5CNCC4COC5)cc3C2)O1` [Example 46, 5-[(2R,6S)-2-methyl-6-[[5-(3-oxa-7,9-diazabicyclo[3.3.1]nonan-9-yl)isoindolin-2-yl]methyl]morpholin-4-yl]quinoline-8-carbonitrile], the IC50 turned out to be 74 nM. Turning to `C[C@@H]1CN(c2ccc(C#N)n3nccc23)C[C@H](CN2CCc3cc(N4CCN(C)CC4)ccc3C2)O1` [Example 15, 4-[(2R,6S)-2-methyl-6-[[6-(4-methylpiperazin-1-yl)-3,4-dihydro-1H-isoquinolin-2-yl]methyl]morpholin-4-yl]pyrazolo[1,5-a]pyridine-7-carbonitrile], the IC50 turned out to be 37 nM. Next, `C[C@@H]1CN(c2ccc(C#N)c3nccnc23)C[C@H](CN2Cc3cnc(N4CCNCC4)cc3C2)O1` [Example 60, 8-[(2R,6S)-2-methyl-6-[(6-piperazin-1-yl-1,3-dihydropyrrolo[3,4-c]pyridin-2-yl)methyl]morpholin-4-yl]quinoxaline-5-carbonitrile]: 11 nM. For `C[C@@H]1CN(c2ccc(Cl)c3ncccc23)C[C@H](CN2CCc3cc(N4CCNCC4)ccc3C2)O1` [Example 32, (2R,6S)-4-(8-chloro-5-quinolyl)-2-methyl-6-[(6-piperazin-1-yl-3,4-dihydro-1H-isoquinolin-2-yl)methyl]morpholine], the IC50 was 39 nM. On to `C[C@@H]1CN(c2ccc(C#N)c3ncsc23)C[C@H](CN2Cc3ccc(N4CCNCC4)cc3C2)O1` [Example 23, 7-[(2R,6S)-2-methyl-6-[(5-piperazin-1-ylisoindolin-2-yl)methyl]morpholin-4-yl]-1,3-benzothiazole-4-carbonitrile], for which the IC50 came out at 6 nM. In the case of `C[C@@H]1CN(c2ccc3c(c2)CN(C[C@H]2CN(c4ccc(C#N)c5nccnc45)C[C@@H](C)O2)C3)CCN1` [Example 65, 8-[(2R,6S)-2-methyl-6-[[5-[(3R)-3-methylpiperazin-1-yl]isoindolin-2-yl]methyl]morpholin-4-yl] quinoxaline-5-carbonitrile], the IC50 was found to be 8 nM.

`CCOC(=O)C1CNCCN1c1ccc2c(c1)CN(C[C@H]1CN(c3ccc(C#N)c4ncccc34)C[C@@H](C)O1)C2` (stereo partly drawn) [Example 50, Ethyl 1-[2-[[(2S,6R)-4-(8-cyano-5-quinolyl)-6-methyl-morpholin-2-yl]methyl]isoindolin-5-yl] piperazine-2-carboxylate]: the IC50 stood at 85 nM. With `C[C@@H]1CN(c2ccc(C#N)c3nccnc23)C[C@H](CN2Cc3ccc(N4CCN(C5CC5)CC4)cc3C2)O1` [Example 35, 8-[(2S,6R)-2-[[5-(4-cyclopropylpiperazin-1-yl)isoindolin-2-yl]methyl]-6-methyl-morpholin-4-yl]quinoxaline-5-carbonitrile], the IC50 is 41 nM. On to `C[C@@H]1CN(c2ccc(C#N)c3ncccc23)C[C@H](CN2Cc3ccc(N4CC(N)C4)cc3C2)O1` [Example 77, 5-[(2S,6R)-2-[[5-(3-aminoazetidin-1-yl)isoindolin-2-yl]methyl]-6-methyl-morpholin-4-yl]quinoline-8-carbonitrile], for which the IC50 came to 32 nM.

`C[C@@H]1CN(c2ccc(C#N)c3ncccc23)C[C@H](CN2Cc3ccc(N4CC5(CCN5)C4)cc3C2)O1` [Example 55, 5-[(2S,6R)-2-[[5-(1,6-diazaspiro[3.3]heptan-6-yl)isoindolin-2-yl]methyl]-6-methyl-morpholin-4-yl]quinoline-8-carbonitrile]: the IC50 was 80 nM. As to `C[C@@H]1CN(c2ccc(C#N)n3nccc23)C[C@H](CN2CCc3cc(N4CCNCC4)ccc3C2)O1` [Example 10, 4-[(2R,6S)-2-methyl-6-[(6-piperazin-1-yl-3,4-dihydro-1H-isoquinolin-2-yl)methyl]morpholin-4-yl]pyrazolo[1,5-a]pyridine-7-carbonitrile], the IC50 amounted to 81 nM.
